According to US10005733B2, “N-(4-hydroxy-4-methyl-cyclohexyl)-4-phenyl-benzenesulfonamide and N-(4-hydroxy-4-methyl-cyclohexyl)-4-(2-pyridyl)-benzenesulfonamide compounds and their therapeutic use” (PIMCO 2664 LIMITED, priority 2014, dated 2018):

What was measured:
[1] = tested on: IL-6 release from Thp1 macrophages; experiment: Thp1 Macrophage IL-6 Release Assay (LPS-stimulated); format: cell-based; details: Homo sapiens, THP-1, 18 h, 100 ng/mL LPS
From the text: Anti-inflammatory effects were further characterised by assessing the production of interleukin-6 (IL-6) by human Thp-1 derived macrophages stimulated with a pro-inflammatory stimulus bacterial lipopolysaccharide (LPS). LPS acts with a cell-surface receptor, Toll-like receptor-4 to activate the NFκB and IRF signalling pathways to produce IL-6. The reduction of IL-6 in this stimulated assay is indicative of anti-inflammatory effects with utility in the treatment of conditions in which IL-6 production is aberrant. In vitro potency of test compounds in human cells was determined by incubation with Thp1 macrophages and subsequent stimulation with an inflammatory stimulus (bacterial lipopolysaccharide (LPS)) followed by measurement of cellular interleukin-6 (IL-6) release. […] The following day, the cells were stimulated with phorbol myristic acid (PMA) at a final concentration of 200 nM to induce differentiation and maintained for 3 days. Test compounds were prepared as […] solutions in DMSO and then serially diluted in DMSO prior to dilution in culture medium. The diluted compounds were added to the cultures 1 hour prior to stimulation with 100 ng/mL LPS. Compounds were tested in triplicate in a 9 point concentration response curve at concentrations of 30, 10, 3, 1, 0.3, 0.1, 0.03, 0.01 and 0.001 μM Following an 18 hour incubation at 37° C./5% CO2, the cell culture medium was collected and assayed for human IL-6 levels using the human IL-6 duo-set ELISA kit (R&D Systems). The average results for each test compound (n=3) were expressed as a percent (%) of the average control value. The average values across the concentrations tested were then plotted and the IC50 for the inhibition of IL-6 was calculated by fitting the data to a 4-parameter IC50 equation using GraphPad Prism software for Windows (Graph Pad Software, San Diego Calif. USA) or Grafit version 5 (Erithacus Software). Each experiment was repeated twice and the data are presented as the mean IC50 from both experiments.

[2] = target: T1, CYP3A4 (Homo sapiens, UniProt P08684); experiment: Human Cytochrome P450 Inhibition Assay (Bactosomes), CYP3A4; format: in vitro ADME; details: recombinant Bactosomes, probe substrate, 10 minutes at 37° C.
T1 construct: purchased Cypex Ltd, Dundee, Scotland UK
Procedure: The ability of test compounds to inhibit five of the most relevant cytochrome P450 enzymes was measured by determination of the activity of cytochrome P450 enzymes in recombinant cytochrome preparations, called Bactosomes (Cypex Ltd, Dundee, Scotland UK DD2 1NH), in the presence of a specific probe substrate. Bactosomes are a highly efficient and cost-effective source of recombinant CYP450s which have a higher specific activity of enzyme compared to other sources, such as liver microsomes. […] The following CYP450 isoforms were assayed: CYP1A2, CYP2C9, CYP2C19, CYP2D6 and CYP3A4. The study of CYP450 inhibition potential in Bactosomes is accepted as a valuable model permitting rapid prediction of potential drug-drug interactions in vivo (see, e.g., Weaver et al., 2003).
Bactosomes were obtained from a commercial source (Cypex, Scotland, UK). Test compounds were incubated with Bactosomes at 6 concentrations. Samples were incubated for 10 minutes, after which the reaction was stopped and the samples analysed by LC-MS/MS Multiple Reaction Monitoring (MRM) for the presence/amount of substrate probe.
CYP450 enzymes (final protein 75 pmol/mL for CYP1A2; 12.5 pmol/mL for CYP2C19; and 25 pmol/mL for CYP2C9, 2D6 and 3A4), 0.1 M phosphate buffer pH 7.4, probe and test compound (final concentration 50, 15.8, 5, 1.58, 0.5 and 0.158 μM; diluted from 10 mM stock solution to give a final DMSO concentration of 1%) were pre-incubated at 37° C. for 5 minutes. The reaction was initiated by the addition of 20 μL of 10 mM NADPH in phosphate buffer. The final incubation volume was 200 μL. The following control inhibitors were used for each CYP450 inhibition assay: CYP1A2: α-naphthoflavone; CYP2C9: sulfaphenazole; CYP2C19: tranylcypromine; CYP2D6: quinidine; CYP3A4: ketoconazole.
Each compound was incubated for 10 minutes at 37° C. The reactions were stopped by the addition of methanol (final composition 1:1, aqueous: methanol). The incubation plates were shaken, chilled at […] for 2 hours, and centrifuged at 3500 rpm for 15 minutes at 4° C. to precipitate the protein.
IC50 values were determined by linear transformation within Microsoft Excel.

[3] = tested on: mice with collagen-induced arthritis; experiment: Mouse Collagen-Induced Arthritis; format: in vivo; details: for % inhibition of disease: oral gavage once daily for 14 days, arthritic index vs control
Procedure: Seven- to eight-week-old male DBA/1j mice were used for all procedures. Animals were housed in groups of 10, and were maintained at 21° C.±2° C. on a 12-hour light/dark cycle with food and water ad libitum. Complete Freund's adjuvant (CFA) was prepared by emulsifying bovine type II collagen at 4 mg/mL with a 4 mg/mL suspension of Mycobacterium tuberculosis H37Ra in Incomplete Freund's adjuvant (IFA) (0.85 mL paraffin oil and 0.15 mL mannide monooleate) in a 1:1 (v/v) ratio. All mice were immunised subcutaneously with 200 μg of bovine type II collagen in CFA. 21 days later, all mice were immunised subcutaneously with 100 μg of bovine type II collagen in IFA. The mice started to develop signs and symptoms of arthritis following the ‘booster’ immunisation.
For macroscopic assessment of arthritis, the following signs were monitored in each paw of each mouse three times per week and summed to generate the Arthritic Index (AI) (the maximum AI for one animal is 16): • 0=no visible effects of arthritis. • 1=oedema and/or erythema of 1 digit. • 2=oedema and/or erythema of 2 digits. • 3=oedema and/or erythema of more than 2 digits. • 4=severe arthritis of entire paw and digits.
Animals were sorted into treatment groups with a mean arthritic index of 2.5 and then dosed once daily for 14 days with compound by oral gavage for test compounds, or by subcutaneous injection at a dose of 10 mg/kg for the positive control, etanercept. After completion of the experiment, the mice were sacrificed.
The data were analysed by generating an average of the arthritic index across each treatment group. The mean arthritic index was then compared to the arthritic index of control (untreated) animals using the following formula to generate a percentage inhibition of disease.

[4] = footnote (2): Thp1 cells plated at 1.7 × 10^5 cells/well, GraphPad Prism
[5] = footnote (1): Thp1 cells plated at 3 × 10^5 cells/well, Grafit

T1 sequence (P08684 whole entry): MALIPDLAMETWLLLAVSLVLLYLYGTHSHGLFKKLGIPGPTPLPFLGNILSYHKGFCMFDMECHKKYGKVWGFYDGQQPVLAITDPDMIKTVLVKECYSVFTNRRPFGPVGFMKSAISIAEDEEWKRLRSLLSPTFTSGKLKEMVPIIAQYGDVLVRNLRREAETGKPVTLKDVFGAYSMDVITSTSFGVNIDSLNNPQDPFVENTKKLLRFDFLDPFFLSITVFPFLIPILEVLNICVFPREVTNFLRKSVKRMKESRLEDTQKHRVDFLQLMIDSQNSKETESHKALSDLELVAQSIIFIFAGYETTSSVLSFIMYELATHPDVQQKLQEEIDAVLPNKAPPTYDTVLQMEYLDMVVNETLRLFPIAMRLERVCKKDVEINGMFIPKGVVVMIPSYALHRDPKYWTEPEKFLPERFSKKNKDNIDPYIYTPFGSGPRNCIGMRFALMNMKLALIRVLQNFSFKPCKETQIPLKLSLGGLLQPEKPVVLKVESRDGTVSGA

SMILES	IC50 [1, 4] [nM]	IC50 [2] [µM]	IC50 [1, 5] [nM]	% inhibition of disease ([3]; 10 mg/kg/day) [%]	% inhibition of disease ([3]; 0.3 mg/kg/day) [%]	% inhibition of disease ([3]; 3 mg/kg/day) [%]	signs and symptoms of disease (in words) ([3]; compared with Etanercept (10 mg/kg s.c.), FIG. 1 and 2)
C[C@]1(O)CC[C@H](NS(=O)(=O)c2ccc(-c3ncc(Cl)cc3C#N)cc2)CC1 [HMC-N-05-A, 4-(5-Chloro-3-cyanopyridin-2-yl)-N-((1r,4r)-4-hydroxy-4-methylcyclohexyl)benzenesulfonamide]	300	> 50					
C[C@]1(O)CC[C@@H](NS(=O)(=O)c2ccc(-c3ccc(F)cc3F)cc2)CC1 [ABD899, reference compound]	40	21.6	30	77			
C[C@]1(O)CC[C@H](NS(=O)(=O)c2ccc(-c3ccc(Cl)cc3C#N)c(Cl)c2)CC1 [HMC-C-11-A, 2,4′-Dichloro-2′-cyano-N-((1r,4r)-4-hydroxy-4-methylcyclohexyl)-[1,1′-biphenyl]-4-sulfonamide]	260	12					
C[C@]1(O)CC[C@@H](NS(=O)(=O)c2ccc(-c3cc(F)c(F)cc3F)cc2)CC1 [HMC-C-10-B, 2′,4′,5′-Trifluoro-N-((1s,4s)-4-hydroxy-4-methylcyclohexyl)-[1,1′-biphenyl]-4-sulfonamide]	550	9.2					
Cc1cc(S(=O)(=O)N[C@H]2CC[C@H](O)CC2)ccc1-c1ccc(F)cc1F [ABD735, reference compound]		> 25		44			
C[C@]1(O)CC[C@@H](NS(=O)(=O)c2ccc(-c3ccc(C#N)cc3)c(F)c2)CC1 [HMC-C-07-B, 4′-Cyano-2-fluoro-N-((1s,4s)-4-hydroxy-4-methylcyclohexyl)-[1,1′-biphenyl]-4-sulfonamide]	18	> 50			16	56	able to reduce signs and symptoms of disease in mice with collagen-induced arthritis to a similar extent as the clinically utilised treatment, Etanercept
C[C@]1(O)CC[C@H](NS(=O)(=O)c2ccc(-c3ccc(Cl)cc3C#N)c(F)c2)CC1 [HMC-C-08-A, 4′-Chloro-2′-cyano-2-fluoro-N-((1r,4r)-4-hydroxy-4-methylcyclohexyl)-[1,1′-biphenyl]-4-sulfonamide]	160	29					
C[C@]1(O)CC[C@H](NS(=O)(=O)c2ccc(-c3ccc(C#N)cc3)c(F)c2)CC1 [HMC-C-07-A, 4′-Cyano-2-fluoro-N-((1r,4r)-4-hydroxy-4-methylcyclohexyl)-[1,1′-biphenyl]-4-sulfonamide]		> 50					
O=S(=O)(N[C@H]1CC[C@H](O)CC1)c1ccc(-c2ccc(F)cc2F)cc1 [ABD599, reference compound]	190	> 25	70				
C[C@]1(O)CC[C@H](NS(=O)(=O)c2ccc(-c3ccc(C#N)cc3Cl)cc2)CC1 [HMC-C-09-A, 2′-Chloro-4′-cyano-N-((1r,4r)-4-hydroxy-4-methylcyclohexyl)-[1,1′-biphenyl]-4-sulfonamide]	170	33					
C[C@]1(O)CC[C@H](NS(=O)(=O)c2ccc(-c3ccc(F)cc3F)cc2)CC1 [ABD900]	110		90				
